The target in experiment [1] is T1, SFTSV CBD (Dabie bandavirus, UniProt I0DF35). The format is binding.
Another experiment has as its target human eIF4E (Homo sapiens, UniProt P06730). The format is binding.
Experiment [2] deals with T1, SFTSV CBD. The format is binding. This is another data set of the same source.
The target in experiment [3] is T1, SFTSV CBD. To be noted: cited from earlier work.
Experiment [4] concerns the target T1, SFTSV CBD. Type of experiment: binding. The source holds these as a separate data set.
Experiment [5] concerns the target T2, RVFV CBD (Rift valley fever virus, UniProt P27316). The following applies: cited from earlier work.
Experiment [6] concerns the target T1, SFTSV CBD. To be noted: cited from earlier work. The source holds these as a separate data set.
In the next experiment the target is PB2 CBD (Influenza A virus, UniProt P31345).
PB2 CBD, sequence (P31345 318-483 limits assumed): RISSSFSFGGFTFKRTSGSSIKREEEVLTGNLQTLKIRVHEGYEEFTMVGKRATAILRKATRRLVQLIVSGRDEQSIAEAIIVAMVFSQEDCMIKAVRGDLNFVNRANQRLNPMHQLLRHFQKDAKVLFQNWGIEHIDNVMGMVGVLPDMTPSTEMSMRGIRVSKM
The target in experiment [7] is T1, SFTSV CBD. The format is binding. The source holds these as a separate data set.
Experiment [8] has as its target T2, RVFV CBD. The format is binding.

Results on six compounds are retold here after publication PMC10739838, “Limited high-throughput screening compatibility of the phenuivirus cap-binding domain” (Scientific Reports, 2023).

Values joined by “and” are separate entries in the source; they are usually repeats but may differ in a detail not shown here. Identical values can stand only once. Like-named read-outs stand apart in the source and are kept apart here.

T2 sequence (P27316 1706-1822 limits assumed): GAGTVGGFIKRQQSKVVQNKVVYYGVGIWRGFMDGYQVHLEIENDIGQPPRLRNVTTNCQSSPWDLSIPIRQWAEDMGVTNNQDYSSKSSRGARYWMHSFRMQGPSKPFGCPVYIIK
T1 sequence (I0DF35 1695-1810 limits assumed): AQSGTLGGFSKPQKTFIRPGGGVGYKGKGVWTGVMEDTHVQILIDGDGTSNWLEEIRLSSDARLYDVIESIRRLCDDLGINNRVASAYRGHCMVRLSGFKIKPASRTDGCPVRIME
human eIF4E, sequence (P06730 whole entry): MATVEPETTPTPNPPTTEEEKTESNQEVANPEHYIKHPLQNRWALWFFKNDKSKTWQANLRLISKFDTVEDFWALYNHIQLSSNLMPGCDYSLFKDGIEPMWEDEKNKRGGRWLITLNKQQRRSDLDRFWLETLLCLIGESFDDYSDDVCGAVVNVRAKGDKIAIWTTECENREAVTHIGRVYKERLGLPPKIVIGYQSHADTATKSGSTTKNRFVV

In general, Kd refers to a measure of binding affinity in units of concentration. Consider `Nc1ncnc2c1ncn2[C@@H]1O[C@H](COP(=O)(O)OP(=O)(O)OP(=O)(O)O)[C@@H](O)[C@H]1O` [ATP], for which binding at SFTSV CBD [1] was characterised by a dissociation constant (Kd) of 20000 µM.

Take `CC[N+]1=C(/C=C/C=C/C=C2/N(CCCCCC(=O)NCCNC(=O)O[C@@H]3[C@H](O)[C@@H](COP(=O)(O)OP(=O)(O)OP(=O)([O-])O)O[C@H]3n3c[n+](C)c4c(=O)[nH]c(N)nc43)c3ccc(S(=O)(=O)O)cc3C2(C)C)C(C)(C)c2cc(S(=O)(=O)[O-])ccc21` [EDA-m^7GTP-Cy5]: the Kd at human eIF4E was 0.036 µM and 0.033 µM and 0.028 µM; at SFTSV CBD [2] it was 55 µM and 32 µM and 36 µM.

As to `Nc1nc2c(ncn2[C@@H]2O[C@H](COP(=O)(O)OP(=O)(O)OP(=O)(O)O)[C@@H](O)[C@H]2O)c(=O)[nH]1` [GTP], the “Effect on thermal stability of the protein” value (“Effect on thermal stability” for short) on SFTSV CBD [3] and on RVFV CBD [5] was “not” in each case. Binding at SFTSV CBD [1] was characterised by a dissociation constant (Kd) of 20000 µM. The “SPR signal on injection of increasing concentrations” value on SFTSV CBD [4] is given as “did not result in a dose-dependent signal increase”.

At SFTSV CBD [2], `CC[N+]1=C(/C=C/C=C/C=C2/N(CCCCCC(=O)NCCOCCOCCOCCOCCC(=O)Nc3ccc(OP(=O)([O-])OP(=O)(O)OP(=O)(O)OC[C@H]4O[C@@H](n5c[n+](C)c6c(=O)[nH]c(N)nc65)[C@H](O)[C@@H]4O)cc3)c3ccc(S(=O)(=O)O)cc3C2(C)C)C(C)(C)c2cc(S(=O)(=O)[O-])ccc21` [m^7GTP-γ-aminophenyl-PEG4-Cy5] gave a Kd of 106 µM.

For the compound `Cn1c[n+]([C@@H]2O[C@H](COP(=O)([O-])OP(=O)(O)OP(=O)(O)O)[C@@H](O)[C@H]2O)c2nc(N)[nH]c(=O)c21` [m^7GTP], the “Effect on thermal stability” value on SFTSV CBD [3] and on RVFV CBD [5] was “higher thermal stability” throughout. Also, the Kd was ~6000 µM and 6100 µM and 10700 µM at SFTSV CBD [1]; 138 µM on SFTSV CBD [6]; 2.8 µM on PB2 CBD; about 1000 µM on SFTSV CBD [4].

As for `O=C(O)[C@H]1C2CCC(CC2)[C@@H]1Nc1nc(-c2c[nH]c3ncc(F)cc23)ncc1F` [pimodivir], the “Effect on thermal stability” value at SFTSV CBD [7] and on RVFV CBD [8] was “destabilization of the protein” in each case.
